The results in this text go back to patent US11753407B2, “Compounds for treating spinal muscular atrophy” (PTC Therapeutics, Inc., priority 2012, dated 2023).

Series [1] relates to Smn protein in SMA patient fibroblast cells (GM03813). The series can be described thus: Smn protein assay in cultured cells (SMN HTRF). It counts as cell-based, human. The following applies: SMA patient fibroblast cells, 48 hours; for EC1.5x for Smn protein expression: 7-point concentration curve, SMN HTRF, concentration producing 1.5 times Smn protein vs DMSO vehicle control; for maximum fold (Fold) increase of Smn protein: 7-point concentration data, fold relative to vehicle control. The essentials: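 Fibroblasts, SMA patient; 5,000 cells/well; 7-pt curve, 3.16-fold serial dilution; 48 h, 37 °C, 5% CO2; RIPA lysis 1 h RT; anti-SMN d2 + kryptate overnight RT; HTRF 665/620 nm; fold vs DMSO; EC1.5×, max fold.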

Series [2] has as its system SMN2 minigene mRNA (SMN2-A minigene) in HEK293H cells. The series is described as follows: SMN2 minigene mRNA splicing RT-qPCR assay in cultured cells. Type of series: cell-based, human. The note with it: Homo sapiens, HEK293-H; concentration increasing full length SMN2 mRNA 1.5-fold relative to vehicle-treated cells; HEK293H cells with SMN2-A minigene, 24 hours, 7-point concentration data; read-out: EC1.5x for production of full length SMN2 mRNA. The gist of the method: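 Stable SMN2-A minigene HEK293H; cpd 7-pt 3.16-fold series, 200× in DMSO, 24 h, 37 °C, n=2. Lysates → multiplex RT-qPCR (minigene FL + GAPDH), efficiency-corrected ΔΔCt vs vehicle. EC1.5× = 1.5-fold FL mRNA gain.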

SMILES strings stand for the structures.

With `CCc1nc(C)cn2nc(-c3cc(=O)n4cc(C5CCN(CC)CC5)ncc4n3)cc12` [Compound 655, 2-(4-ethyl-6-methylpyrazolo[1,5-a]pyrazin-2-yl)-7-(1-ethylpiperidin-4-yl)-4H-pyrazino[1,2-a]pyrimidin-4-one], the melting point is 273 to 275 °C. Also, in series [1], the “EC1.5x for Smn protein expression” value is “**** (an EC1.5x≤0.3 μM is indicated by four stars (****))”; the “maximum fold (Fold) increase of Smn protein” value (“maximum fold (Fold) increase” below) is “**** (a fold increase between >1.5 and ≤1.65 is indicated by four stars (****))”. In series [2], the EC (1.5-fold increase) was less than 0.1 µM.
`CCc1nc(C)cn2nc(-c3cc(=O)n4cc(C5CCNCC5)ccc4n3)cc12` [Compound 656, 2-(4-ethyl-6-methylpyrazolo[1,5-a]pyrazin-2-yl)-7-(piperidin-4-yl)-4H-pyrido[1,2-a]pyrimidin-4-one]: the melting point lay within 236 to 238 °C. For the same molecule, in series [1], the “EC1.5x for Smn protein expression” value is reported as “**** (an EC1.5x≤0.3 μM is indicated by four stars (****))”; the “maximum fold (Fold) increase” value is “**** (a fold increase between >1.5 and ≤1.65 is indicated by four stars (****))”. Besides, the EC (1.5-fold increase) in series [2] was less than 0.1 µM.
Regarding `CCc1nc(C)cn2nc(-c3cc(=O)n4cc(C5CCN(C)CC5)ccc4n3)cc12` [Compound 657, 2-(4-ethyl-6-methylpyrazolo[1,5-a]pyrazin-2-yl)-7-(1-methylpiperidin-4-yl)-4H-pyrido[1,2-a]pyrimidin-4-one], the melting point fell in the range of 190 to 192 °C. In series [1], the “EC1.5x for Smn protein expression” value is given as “**** (an EC1.5x≤0.3 μM is indicated by four stars (****))” and the “maximum fold (Fold) increase” value is “***** (a fold increase >1.65 is indicated by five stars (*****))”. Also, the EC (1.5-fold increase) in series [2] was less than 0.1 µM.
On the same counts, the results for `CCc1nc(C)cn2nc(-c3cc(=O)n4cc(C5CCN(CC)CC5)ccc4n3)cc12` [Compound 658, 2-(4-ethyl-6-methylpyrazolo[1,5-a]pyrazin-2-yl)-7-(1-ethylpiperidin-4-yl)-4H-pyrido[1,2-a]pyrimidin-4-one] are 194 to 196 °C, “**** (an EC1.5x≤0.3 μM is indicated by four stars (****))”, “***** (a fold increase >1.65 is indicated by five stars (*****))” and less than 0.1 µM.
In turn, `CCc1nc(C)cn2nc(-c3cc(=O)n4cc(C5CCN(CCO)CC5)ccc4n3)cc12` [Compound 659, 2-(4-ethyl-6-methylpyrazolo[1,5-a]pyrazin-2-yl)-7-[1-(2-hydroxyethyl)piperidin-4-yl]-4H-pyrido[1,2-a]pyrimidin-4-one] registered a melting point of 207 to 209 °C. For the same molecule, in series [1], the “EC1.5x for Smn protein expression” value is reported as “**** (an EC1.5x≤0.3 μM is indicated by four stars (****))” and the “maximum fold (Fold) increase” value is recorded as “***** (a fold increase >1.65 is indicated by five stars (*****))”. In addition, in series [2], the EC (1.5-fold increase) was less than 0.1 µM.
`CCCN1CCC(c2ccc3nc(-c4cc5c(CC)nc(C)cn5n4)cc(=O)n3c2)CC1` [Compound 660, 2-(4-ethyl-6-methylpyrazolo[1,5-a]pyrazin-2-yl)-7-(1-propylpiperidin-4-yl)-4H-pyrido[1,2-a]pyrimidin-4-one]: the melting point is 203 to 204 °C. Besides, in series [1], the “EC1.5x for Smn protein expression” value is “**** (an EC1.5x≤0.3 μM is indicated by four stars (****))”; the “maximum fold (Fold) increase” value is “**** (a fold increase between >1.5 and ≤1.65 is indicated by four stars (****))”. For the same molecule, the EC (1.5-fold increase) in series [2] was less than 0.1 µM.
With `CCc1nc(C)cn2nc(-c3cc(=O)n4cc(N5CCN[C@H](C)C5)ccc4n3)cc12` [Compound 661, 2-(4-ethyl-6-methylpyrazolo[1,5-a]pyrazin-2-yl)-7-[(3R)-3-methylpiperazin-1-yl]-4H-pyrido[1,2-a]pyrimidin-4-one], the melting point lay in the range of 185 to 188 °C. For the same molecule, in series [1], the “EC1.5x for Smn protein expression” value is “**** (an EC1.5x≤0.3 μM is indicated by four stars (****))” and the “maximum fold (Fold) increase” value is “***** (a fold increase >1.65 is indicated by five stars (*****))”. Moreover, the EC (1.5-fold increase) in series [2] was less than 0.1 µM.
In the same order, the values of `Cc1cn2nc(-c3cc(=O)n4cc(C5CCN(CCCF)CC5)ccc4n3)cc2c(C)n1` [Compound 663, 2-(4,6-dimethylpyrazolo[1,5-a]pyrazin-2-yl)-7-[1-(3-fluoropropyl)piperidin-4-yl]-4H-pyrido[1,2-a]pyrimidin-4-one] are 186 to 188 °C, “**** (an EC1.5x≤0.3 μM is indicated by four stars (****))”, “***** (a fold increase >1.65 is indicated by five stars (*****))” and less than 0.1 µM.
For the molecule `CCc1nc(C)cn2nc(-c3cc(=O)n4cc(N5CCN(CCF)CC5)ccc4n3)cc12` [Compound 664, 2-(4-ethyl-6-methylpyrazolo[1,5-a]pyrazin-2-yl)-7-[4-(2-fluoroethyl)piperazin-1-yl]-4H-pyrido[1,2-a]pyrimidin-4-one], the melting point was in the range of 245 to 247 °C. Moreover, in series [1], the “EC1.5x for Smn protein expression” value was “*** (an EC1.5× between >0.3 μM and ≤1 μM is indicated by three stars (***))”; the “maximum fold (Fold) increase” value is “***** (a fold increase >1.65 is indicated by five stars (*****))”. Moreover, the EC (1.5-fold increase) in series [2] is 0.3 to 1 µM.
The molecule `CCc1nc(C)cn2nc(-c3cc(=O)n4cc(N5CCN(CCCF)CC5)ccc4n3)cc12` [Compound 665, 2-(4-ethyl-6-methylpyrazolo[1,5-a]pyrazin-2-yl)-7-[4-(3-fluoropropyl)piperazin-1-yl]-4H-pyrido[1,2-a]pyrimidin-4-one] gave a melting point of 240 to 242 °C. In series [1], the “EC1.5x for Smn protein expression” value is “**** (an EC1.5x≤0.3 μM is indicated by four stars (****))” and the “maximum fold (Fold) increase” value is “***** (a fold increase >1.65 is indicated by five stars (*****))”. Further, the EC (1.5-fold increase) in series [2] is 0.1 to 0.3 µM.
`CCc1nc(C)cn2nc(-c3cc(=O)n4cc(N5CCN(CCF)[C@H](C)C5)ccc4n3)cc12` [Compound 666, 2-(4-ethyl-6-methylpyrazolo[1,5-a]pyrazin-2-yl)-7-[(3R)-4-(2-fluoroethyl)-3-methylpiperazin-1-yl]-4H-pyrido[1,2-a]pyrimidin-4-one] had a melting point of 255 to 257 °C. In addition, in series [1], the “EC1.5x for Smn protein expression” value was “*** (an EC1.5× between >0.3 μM and ≤1 μM is indicated by three stars (***))”; the “maximum fold (Fold) increase” value is “***** (a fold increase >1.65 is indicated by five stars (*****))”. Moreover, the EC (1.5-fold increase) in series [2] lay in the range of 0.1 to 0.3 µM.
In turn, `CCc1nc(C)cn2nc(-c3cc(=O)n4cc(N5CCN(CCCF)[C@H](C)C5)ccc4n3)cc12` [Compound 667, 2-(4-ethyl-6-methylpyrazolo[1,5-a]pyrazin-2-yl)-7-[(3R)-4-(3-fluoropropyl)-3-methylpiperazin-1-yl]-4H-pyrido[1,2-a]pyrimidin-4-one] had a melting point of 244 to 246 °C. Besides, in series [1], the “EC1.5x for Smn protein expression” value was “**** (an EC1.5x≤0.3 μM is indicated by four stars (****))” and the “maximum fold (Fold) increase” value is listed as “***** (a fold increase >1.65 is indicated by five stars (*****))”. In addition, the EC (1.5-fold increase) in series [2] is less than 0.1 µM.
